The values below come from patent US11958842B2, “Substituted phenazines and methods of treating cancer and bacterial diseases” (Adjutec Pharma AS, priority 2016, dated 2024).

Molecules are shown by their SMILES. Read-outs that look alike come from different tables or passages of the source. Some results are limits rather than exact numbers.

Common to all, as to experiment: Cytotoxicity, WST-1 and nuclear morphology (Example 73)
Common to all, as to format: cell-based

The test system of experiment [1] is human acute myeloid leukemia cell line MOLM-13. As for the experimental part: (§1) All cell culturing media and serum were from Sigma-Aldrich (St. Louis, Mo., USA). Product Nos. are given in parentheses. The human acute myeloid leukemia cell line MOLM-13 was cultured in RPMI medium (R5886) enriched with […] (F7524) and 0.2 mM L-glutamine (G7513). The normal rat kidney epithelial (NRK) and the rat cardiomyoblast (H9c2) cells were cultured in DMEM medium (D6429) enriched with 10% fetal bovine serum (F7524). All cell lines were additionally supplemented with 100 IU/mL penicillin and […] (P0781). The cells were cultured in a humidified atmosphere either under 2% or 20% O2 at 37° C.
(§2) All analogues were dissolved in DMSO (D5879, Sigma-Aldrich) at concentrations between 2.5 and 20 mM before testing. For cytotoxic testing, the MOLM-13 cells were seeded as 20,000 cells/well, while NRK and H9c2 cells were seeded as 5,000 cells/well in 96-well Microplates (#167008, Thermo Scientific™ Nunc™ MicroWell™) with 100 μL medium/well. The cells were exposed to various concentrations of iodinin or its analogues for 24 hrs before the cell proliferation reagent WST-1 was used to assess the viability, in accordance with the manufacturer's instructions (11644807001, Roche Diagnostics, Sigma-Aldrich). The cells were next fixed in 2% buffered formaldehyde (pH 7.4) with the DNA-specific dye Hoechst 33342 (Polysciences Inc.) and assessed for cell death by UV-microscopy based on nuclear morphology. The highest concentration of analogue corresponded to 1% of DMSO, which alone gave less than 7% cell death as judged by nuclear morphology.
(§3) EC50 values were determined by analyses of WST-1 signal results as well as microscopic evaluation of cell death by four-parameter regression analyses using the SigmaPlot software (Systat Software inc. San Jose, Calif.):
(§4) [formula] where Y is the response (WST-1 signal or percent apoptosis), min and max are minimum and maximum response, X is concentration of analogue, EC50 equals the point of inflection, i.e. the point that gives half of maximum response, and h is the Hill's slope of the curve. The two methods gave consistent response curves for each analogue. In the case of Tirapazamine, where its colour interfered with the WST-1 signal, only microscopic evaluation of Hoechst stained cells was used in order to calculate its EC50 values.

The test system of experiment [2] is rat cardiomyoblast (H9c2) cells. To be noted: read-out: EC50 (μM) H9c2 19% O2. As to the method: as §1, §2, §3, §4
The test system of experiment [3] is normal rat kidney epithelial (NRK) cells. As for the experimental part: as §1, §2, §3, §4
Where [4] appears, read: Homo sapiens, MOLM-13, 24 h, read-out: EC50 (μM) MOLM-13 2% O2.
[5] abbreviates: Homo sapiens, MOLM-13, 24 h, read-out: EC50 (μM) MOLM-13 19% O2.
The mark [6] stands for this setting: Homo sapiens, MOLM-13, 2% O2, 24 hours of incubation, read-out: EC50 (μM) MOLM-13 2% O2.
[7] abbreviates: Homo sapiens, MOLM-13, 19% O2, 24 hours of incubation, read-out: EC50 (μM) MOLM-13 19% O2.
Setting [8] is: Rattus norvegicus, 2% O2, 24 hours of incubation, read-out: EC50 (μM) NRK 2% O2.
Where [9] appears, read: Rattus norvegicus, 19% O2, 24 hours of incubation, read-out: EC50 (μM) NRK 19% O2.
The mark [10] stands for this setting: Rattus norvegicus, H9c2, 19% O2, 24 hours of incubation.
Where [11] appears, read: MOLM-13, 2% O2, 24 hours of incubation, read-out: EC50 (μM) MOLM-13 2% O2.
The mark [12] stands for this setting: MOLM-13, 19% O2, 24 hours of incubation, read-out: EC50 (μM) MOLM-13 19% O2.
The mark [13] stands for this setting: Rattus norvegicus, 24 h, read-out: EC50 (μM) NRK 2% O2, NRK, 2% O2, 24 hours of incubation.
Setting [14] is: Rattus norvegicus, 24 h, read-out: EC50 (μM) NRK 19% O2, NRK, 19% O2, 24 hours of incubation.
[15] abbreviates: H9c2, 19% O2, 24 hours of incubation.

Turning to `Cc1cc2c(cc1C)[n+](O)c1cc(OC(=O)N3CCN(C)CC3)ccc1[n+]2[O-]` [Example 65, 2,3-dimethyl-7-((4-methylpiperazine-1-carbonyl)oxy)phenazine 5,10-dioxide], the 50% effective concentration (EC50) in experiment [1] (setting [4]) was found to be 2.5 ± 0.24 µM; in experiment [1] (setting [5]), 17 µM; in experiment [2] (Rattus norvegicus, H9c2, 24 h) it was 20 ± 2.4 µM.

In the case of `CCN(CC)C(=O)COc1cccc2c1[n+]([O-])c1ccccc1[n+]2[O-]` [Example 21, 1-(2-(diethylamino)-2-oxoethoxy)phenazine 5,10-dioxide], the EC50 in experiment [1] (setting [6]) turned out to be 1.4 ± 0.15 µM; in experiment [1] (setting [7]), 1.2 ± 0.08 µM; in experiment [3] (setting [8]), 16 ± 1 µM; in experiment [3] (setting [9]), 13 ± 0.01 µM; in experiment [2] (setting [10]) it was 23 ± 0.1 µM.

Turning to `Nc1ccc2c(c1)[n+](O)c1ccccc1[n+]2[O-]` [Example 67, 2-aminophenazine 5,10-dioxide], the half-maximal effective concentration (EC50) in experiment [1] (setting [6]) worked out at 7.6 ± 0.89 µM; in experiment [1] (setting [7]), 31 ± 1.4 µM; in experiment [2] (setting [10]), 80 ± 8.9 µM.

`Cc1cc2c(cc1C)[n+]([O-])c1cc(O)ccc1[n+]2[O-]` [Example 64, 7-hydroxy-2,3-dimethylphenazine 5,10-dioxide]: the EC50 is 50 ± 3.8 µM in experiment [1] (setting [6]), 117 ± 1 µM in experiment [1] (setting [7]) and more than 200 µM in experiment [2] (setting [10]).

Take `Cc1c(C)[n+](O)c2c(O)cccc2[n+]1[O-]` [Example 12, 5-hydroxy-2,3-dimethylquinoxaline 1,4-dioxide]: the concentration for a half-maximal effect (EC50) in experiment [1] (setting [6]) and in experiment [1] (setting [7]) was more than 200 µM throughout.

Turning to `Cc1c(C)[n+]([O-])c2c(OC(=O)N3CCN(C)CC3)cccc2[n+]1[O-]` [Example 13, 2,3-dimethyl-5-((4-methylpiperazine-1-carbonyl)oxy)quinoxaline 1,4-dioxide], the EC50 in experiment [1] (setting [11]) and in experiment [1] (setting [12]) was more than 200 µM each time.

On to `[O-][n+]1c2ccccc2[n+]([O-])c2cc(O)ccc21` [Example 60, 2-hydroxyphenazine 5,10-dioxide], for which the 50% effective concentration (EC50) is 45 ± 3.5 µM in experiment [1] (setting [6]), 128 ± 3 µM in experiment [1] (setting [7]) and more than 200 µM in experiment [2] (setting [10]).

`CN1CCN(C(=O)Oc2ccc3c(c2)[n+](O)c2ccccc2[n+]3O)CC1` [Example 63, 2-((4-methylpiperazine-1-carbonyl)oxy)phenazine 5,10-dioxide]: the EC50 in experiment [1] (setting [4]) came out at 3.5 ± 0.19 µM; in experiment [1] (setting [5]), 14 ± 0.4 µM; in experiment [2] (Rattus norvegicus, H9c2, 24 h), 53 ± 0.3 µM.

As to `CN1CCN(C(=O)Oc2cccc3c2[n+]([O-])c2cc(Br)c(Br)cc2[n+]3[O-])CC1` [Example 8g, 7,8-dibromo-1-((4-methylpiperazine-1-carbonyl)oxy)phenazine 5,10-dioxide], the EC50 in experiment [1] (setting [4]) amounted to 0.7 ± 0.04 µM; in experiment [1] (setting [5]), 0.89 ± 0.03 µM; in experiment [3] (read-out: EC50 (μM) NRK 2% O2, 2% O2, 24 hours of incubation), 62 ± 1.3 µM; in experiment [3] (read-out: EC50 (μM) NRK 19% O2, 19% O2, 24 hours of incubation) it was 49 ± 1.8 µM; in experiment [2] (Rattus norvegicus, H9c2, 24 h), 64 ± 9.2 µM.

In the case of `CCOC(=O)COc1ccc2c(c1)[n+](O)c1ccccc1[n+]2O` [Example 62, 2-(2-ethoxy-2-oxoethoxy)phenazine 5,10-dioxide], the EC50 was found to be 15 ± 0.7 µM in experiment [1] (setting [6]), 32 ± 5 µM in experiment [1] (setting [7]) and 45 ± 4.8 µM in experiment [2] (setting [10]).

As to `CC(C)(C)OC(=O)COc1cccc2c1[n+]([O-])c1cccc(OCC(=O)OC(C)(C)C)c1[n+]2[O-]` [Example 36, 1,6-bis(2-(tert-butoxy)-2-oxoethoxy)phenazine 5,10-dioxide], the EC50 in experiment [1] (setting [6]) is 3.3 ± 0.22 µM; in experiment [1] (setting [7]), 4.2 ± 0.2 µM; in experiment [3] (setting [8]), 27 ± 1.8 µM; in experiment [3] (setting [9]) it was 27 ± 1.2 µM.

Turning to `CCOC(=O)COc1cccc2c1[n+]([O-])c1cc(C)c(C)cc1[n+]2[O-]` [Example 6b, 1-(2-ethoxy-2-oxoethoxy)-7,8-dimethylphenazine 5,10-dioxide], the EC50 in experiment [1] (setting [6]) is 6.3 ± 0.25 µM; in experiment [1] (setting [7]), 8.3 ± 0.78 µM; in experiment [3] (setting [8]), more than 100 µM; in experiment [3] (setting [9]) it was 140 ± 2 µM; in experiment [2] (setting [10]), more than 100 µM.

Regarding `CC(C)(C)OC(=O)COc1cccc2c1[n+]([O-])c1ccccc1[n+]2O` [Example 19, 1-(2-(tert-butoxy)-2-oxoethoxy)phenazine 5,10-dioxide], the EC50 stood at 1.9 ± 0.11 µM in experiment [1] (setting [6]); 2.2 ± 0.09 µM in experiment [1] (setting [7]); 25 ± 1.9 µM in experiment [3] (setting [8]); 26 ± 0.7 µM in experiment [3] (setting [9]); 20 ± 2.1 µM in experiment [2] (setting [10]).

Consider `O=C(O)COc1cccc2c1[n+]([O-])c1cccc(OCC(=O)O)c1[n+]2[O-]` [Example 37, 1,6-bis(carboxymethoxy)phenazine 5,10-dioxide], for which the EC50 in experiment [1] (setting [6]) is 39 ± 9 µM; in experiment [1] (setting [7]), 18 ± 3 µM; in experiment [3] (setting [8]), more than 200 µM; in experiment [3] (setting [9]), more than 200 µM.

With `[O-][n+]1c2ccccc2[n+]([O-])c2c(O)cccc21` [Example 17, 1-hydroxyphenazine 5,10-dioxide], the concentration for a half-maximal effect (EC50) was 12 ± 0.04 µM in experiment [1] (setting [6]); 11 ± 1.8 µM in experiment [1] (setting [7]); more than 100 µM in experiment [3] (setting [8]); 79 ± 4.2 µM in experiment [3] (setting [9]); more than 100 µM in experiment [2] (setting [10]).

As for `O=C(Oc1cccc2c1[n+]([O-])c1ccccc1[n+]2[O-])N1CCCC1` [Example 24, 1-((pyrrolidine-1-carbonyl)oxy)phenazine 5,10-dioxide], the EC50 in experiment [1] (setting [11]) was 1.2 ± 0.15 µM; in experiment [1] (setting [12]), 1.5 ± 0.18 µM; in experiment [3] (setting [13]), 21 ± 2.4 µM; in experiment [3] (setting [14]) it was 18 ± 0.6 µM; in experiment [2] (setting [15]), 13 ± 0.5 µM.

On to `O=C(Oc1cccc2c1[n+]([O-])c1cccc(O)c1[n+]2[O-])N1CCCC1` [Example 8j, 1-hydroxy-6-((pyrrolidine-1-carbonyl)oxy)phenazine 5,10-dioxide], for which the half-maximal effective concentration (EC50) in experiment [1] (setting [11]) is 0.79 ± 0.09 µM; in experiment [1] (setting [12]), 0.86 ± 0.05 µM; in experiment [3] (setting [13]) it was 15 ± 1 µM; in experiment [3] (setting [14]), 9.6 ± 0.38 µM; in experiment [2] (setting [15]), 12 ± 0.7 µM.

In the case of `Cc1cc2c(cc1C)[n+]([O-])c1c(O)cccc1[n+]2[O-]` [Example 48, 1-hydroxy-7,8-dimethylphenazine 5,10-dioxide], the EC50 in experiment [1] (setting [6]) is 2.3 ± 0.1 µM; in experiment [1] (setting [7]) it was 2.8 ± 0.25 µM; in experiment [3] (setting [8]) it was more than 50 µM; in experiment [3] (setting [9]), more than 50 µM; in experiment [2] (setting [10]), more than 50 µM.

Take `Cc1c(C)[n+]([O-])c2c(OC(=O)N3CCOCC3)cccc2[n+]1[O-]` [Example 69, 2,3-dimethyl-5-((morpholine-4-carbonyl)oxy)quinoxaline 1,4-dioxide]: the EC50 in experiment [1] (setting [11]) and in experiment [1] (setting [12]) was more than 200 µM in each case.
